Reference: patent US20030125283A1, “Therapy of proliferative disorders by direct irradiation of cell nuclei with tritiated nuclear targetting agents” (priority 2002, published 2003)
Values belong to the molecule of their own block, whether it stands above or below them.

Columns and labels:
[1] = test system: 4047 colon cancer cells, BT-20 and MCF-7 breast cancer cell lines; assay: Killing of tumor cells in vitro, cell counts and trypan blue viability; type: cell-based, rat (4047), human (BT-20
Experimental: In-vitro experiments were performed using cultured 4047 colon cancer cells as described in Gatenby, R A and Taylor D D (1990) Cancer Res. 50: 7997-8001. 4047 cells (2×10^4) were placed in each well of a 6-well plate and incubated overnight in 1 ml of RPMI-1640 media with 10% fetal bovine serum (FBS). The cells were divided into 4 groups as follows:
Group 4: incubated in unlabelled thymidine at concentrations 1, 2, 3, and 4 mM (so that concentration of thymidine was identical to that of the labeled thymidine in Group 3).
Each group was incubated for 24 hours and then washed 3 times in sterile physiologic saline (PBS). One milliliter of unlabelled media was added and the cells incubated for an additional 48 hours. Subsequently, the cells were washed with PBS, lifted with trypsin, and counted with a hematocytometer. Percent cell viability was determined by exclusion of trypan blue. All measurements were performed in triplicate. Once a dose-response curve was established in the 4047 cell line, identical experiments were conducted with the BT-20 and MCF-7 breast cancer cell lines.

[2] = mouse, in vivo
Experimental: In the treatment and control groups, 10×10^6 BT-20 human breast cancer cells are inoculated subcutaneously into the flanks of the mice. Animal weights are recorded daily and animals are closely monitored for signs of illness. Approximate tumor volumes are measured every other day using calipers to measure the height (H), width (W), and length (L) of each tumor. Tumor volumes are calculated according to the formula for volume of an ellipsoid V=πHWL/6. Tumors grow to 300-500 mm^3 in approximately 3-4 weeks after inoculation. A set of 6 measurements per day is made on a single tumor in the control group on one day of each week to determine the standard deviation versus volume in the volume measurements.
Tumor growth is monitored for a total of 4 weeks, whereupon the mice are sacrificed and the tumors and other tissue are harvested.
Lines are drawn along the anterior-posterior length of the harvested tumors. In addition, the top, left and right of the harvested tumors is marked. […] A portion of the sample in is placed in Hionic-Fluor LSC cocktail and the radioactivity counted in a scintillation counter. […]
Ten to fifteen microliters of the dissolved tissue or is spotted on a silica gel TLC plate, and the plate is placed in a chromatography chamber containing ˜200 ml of eluant so the dissolved tissue sample is just above the eluant surface. […] The radioactivity is counted in the scintillation counter. […]

[3] = test system: Human BT-20 breast cancer tumors; assay: Preliminary in vivo dose-response curve, single intratumoral injections (Example 8); set-up: species or system Nu/Nu female nude mice; details: single intratumoral injection; theoretical
Description: Six experimental groups of 18 4-6 week old Nu/Nu female nude mice (Charles River Laboratory, Wilmington, Mass.) are used. In each of the six groups an additional group of 6 mice serves as an uninoculated control. Thus the total number of experimental mice is 108 and total number of uninoculated control mice is 36.
Each experimental group is then divided into two subgroups: one treatment subgroup of 12 mice and one untreated (but inoculated) control subgroup of six mice. […] Because the tumors have variable growth rates, subgroups are chosen such that the mean tumor volume and standard deviation are similar for each subgroup. […]
The mice are monitored daily and the tumors measured daily by microcaliper for a minimum of 3 weeks or until tumor re-growth begins. Tumor volumes are calculated as in Example 2. Three daily tumor volumes are measured for the first group so that the error in the volume measurement can be determined as in Example 4. The mean volumes and standard deviations are calculated and growth rate curves are monitored during the experiment. The data are expressed as percent difference of the tumor volume at any given time point to its pre-injection volume.
Tumor volume data is analyzed as described above in the in Example 4 by calculating percent tumor reduction and initial tumor volume. Systemic toxicity is not directly measured, but is monitored as described above in Example 4. […]

BT-20 tumor xenografts = assay: Reduction in tumor volume in the half-life study (Example 7); type: in vivo, Nu/Nu female nude mice; details: each treatment subgroup, intratumoral 4 to 50 μCi/g tumor
Experimental: BT-20 tumor cells (10 million cells in 0.2 ml PBS) are inoculated into the right flank of each mouse as in Example 4 above. The tumors are grown to volumes of 300-500 mm^3 over the course of 3-4 weeks.
After tumors in all mice have reached the required 300-500 mm^3 volume, each group of 60 is divided into ten subgroups of six animals each.
Reduction in tumor volume is estimated as in Example 4 for each treatment subgroup over the course of the experiment. The data is analyzed by calculating the percentage of tumor reduction as in Example 4. The error in this measurement is determined from the measured standard deviation and the standard formula for calculating the error for a ratio given above in Equation 1. Systemic toxicity is not directly measured, but is monitored as described above in Example 4.

[4] = test system: BT20 human breast cancer tumors; assay: Efficacy of a multiple dose regimen, intratumoral versus i.v. (Example 9); type: in vivo, female nude mice
Experimental: To accomplish this, the superposition method of Sharget and Yu, supra, is used to extend the two compartment pharmacokinetic model presented in Example 6 from the single dose to the multidose case. […] Using the superposition method, the maximum and minimum of the multi-dose regimen can be averaged together to give an estimate of the mean concentration in the tumor during multiple injections (Sharget and Yu, supra).
This dose regimen is tested experimentally as follows.
60 4-6 weeks old female nude mice in 2 groups of 30 mice are used. Each group of 30 mice is further divided into two subgroups (10 control mice and 20 treatment mice). As before, the treatment mice will be divided into subgroups that consist of similar distribution of tumor volumes. In each treatment subgroup, 10×10^6 BT20 human breast cancer cells are inoculated subcutaneously in flanks of the mice as in Example 4. […] Tumors are grown to 300-500 mm^3 in volume.
The mice from one treatment subgroup receive an intratumoral injection of 16 μCi/20 μl normal saline (a dose of 32 μCi/gram of tumor). The dose is repeated every 7 days for a total of 3 doses.

[5] = Caro, supra; cited from earlier work

Compound: Cc1cn([C@H]2C[C@H](O)[C@@H](CO)O2)c(=O)[nH]c1=O [Unlabelled thymidine, thymidine, reference compound]
effect on tumor growth ([1]; unlabelled thymidine 1, 2, 3, and 4 mM, 24 hours incubation, then 48 hours in unlabelled media): no effect on tumor growth

share of injected dose retained in the tumor [2]: about 10%
Compound: Cc1cn([C@H]2C[C@H](O)[C@@H](CO)O2)c(=O)[nH]c1=O [^3H-thymidine]
antitumor effect ([1]; 0.1 μCi/ml (concentration used only with 4047 cells)): significant antitumor effect
viable tumor cells identified ([1]; populations exposed to 1.0 μCi/ml or greater, in most experiments): few viable tumor cells
ED90, minimal effective dose for eradicating tumors in 90% of the treated mice [3]: 16 μCi/g tumor
tumor volume (BT-20 tumor xenografts): significant reduction in tumor volume
r, tumor regression ([4]; i.v. injection 16 μCi (~800 μCi/kg body wt.) once a week for three weeks, after three doses): approximately 0.8
r, tumor regression ([4]; intratumoral 16 μCi/20 μl saline (32 μCi/gram of tumor) every 7 days, 3 doses): approximately zero

Compound: [3H]O[3H] [^3H-water, reference compound]
cytotoxicity ([1]; 0.1-3.0 μCi/ml media, 24 hours incubation, then 48 hours in unlabelled media, ^3H-water effect particularly above 1 μCi/ml, ^3H-thymidine compared with ^3H-water at each dose (p<<0.01)): slight cytotoxicity

Compound: [3H] [tritium]
effective biological half-life [5]: approximately 12 days
